Assay results reported in US20200253929A1, “TREATMENT OF EPILEPSY” (priority 2017, published 2020).

Assays:
Cav1.2 channel = target: T1, Cav1.2 channel (Homo sapiens, UniProt Q13936); assay: Cardiotoxicity fluorescence-based assay, Cav1.2 channel; type: cell-based; settings: HEK293 cells
T1 construct: expressed in transfected cells; host or cells: HEK293
Method: Fluorescence-based assays were performed using HEK293 cell lines that stably express the Nav1.5-channel, Cav1.2-channel or hERG K+-channel, using FMP Red Dye (Molecular Devices), calcium-sensitive fluorescent dye Fluo-4 (Invitrogen) and FIuxOR™ reagent (Invitrogen), respectively, and a FLIPR Tetra High-Throughput Cellular Screening System (Molecular Devices), according to manufacturer's protocols (Molecular Devices). Tetrodotoxin (TTX), israpidine and nicarpidine, and astemizole and haloperidol were used as standard sodium channel, calcium channel, and hERG channel blockers. Data were analyzed using Genedata Screener.

SHSY5Y cells = assay: Cell viability MTT assay, SHSY5Y cells; type: cell-based, human; settings: 24 h incubation; for IC50: read-out: Cytotoxicity SHSY5Y cells IC50
Method: Protocol was based on literature [Patel and Patel. (2011) J. App. Pharm. Sci 1, 167-171]. Three cell lines were used: a) Hep G2 (HB-8065), a well-differentiated human hepatocellular carcinoma cell line, b) THLE-2, human liver epithelial cells transformed with SV40 large T-antigen and c) SHSYSY, a thrice-cloned sub-line of a human metastatic bone tumor. Cells were seeded at a concentration of 1×10^4 cells/well in 200 μL culture medium and incubated at 37° C. in 5% CO2 using 96-well plates for 24 h. Next, the medium was replaced with medium complemented with test compounds. After another 24 h incubation, the medium was replaced by 100 μL of a MTT (3-(4,5-dimethylthiazol-2-yl)-2,5-diphenyltetrazolium bromide) solution (5 mg/mL in PBS and diluted at 0.5 mg/mL in MEM without phenol red). The plates were gently shaken and incubated for 3 hours at 37° C. in a 5% CO2 incubator. The supernatant was removed and 100 μL of 100% DMSO was added. The plates were gently shaken to solubilize the formed formazan. The absorbance was measured using a multireader (Victor2 (Wallac)) at a wavelength of 570 nm.

[1] = Metabolic stability assay (hepatic clearance); type: in vitro ADME; settings: human liver microsomes; for Hepatic clearance / Hepatic clearance t1/2 (half-life): 1 μM
Method: The assay was performed with a mixture of test compounds (1 μM), NADPH (4 mM) and Human Liver Microsomes (HLM) (1 mg/mL) incubated at 37° C. Reactions were quenched at 0, 15, 30, 45, 60, and 90 min, using an equal volume of acetonitrile and then diluted 1:1 with water prior to analysis by LC-MS/MS. The analysis was performed using an Agilent Series 1290 LC system (Agilent Technologies, Santa Clara, Calif., USA) using a Supelco Discovery HS C18 (2.1×50 mm) 3 µm column that was held at 30° C. Solvent A contained water with 0.1% formic acid and solvent B contained acetonitrile with 0.1% formic acid, and the flow rate was set at 400 μL/min. The gradient elution was performed as follows: 0-0.5 min 0% eluent B; 0.5-7 min 100% eluent B; 7-9 min 100% eluent B; 9-9.2 min 0% eluent B; and 9.2-10.5 min 0% eluent B. An API 4000 mass spectrometer in positive ESI mode (AB SCIEX, Concord, ON, Canada) was used with a generic method for data acquisition on all compounds. Data processing was performed using MultiQuant Software (AB SCIEX, Concord, ON, Canada) to process the data. Peak areas were used to plot the Ln % remaining relative to time (t)=0. The slope of the natural log of the percent remaining versus time was calculated to determine the first-order rate constant (k) and the half-life (t1/2) of the test compounds according to the following equation: t1/2=0.693/k (min)

[2] = tested on: PTZ-induced seizures in zebrafish larvae; assay: Zebrafish PTZ seizure model, behavioral analysis; type: in vivo, Danio rerio; settings: for PTZ-induced seizures (seizure-like behavior): vs VHC+PTZ
Method: To investigate whether the isolated compounds display antiseizure activity, they were tested in the zebrafish PTZ seizure model after both an acute (2 hours) and chronic (18 hours) incubation time at their maximum tolerated concentration (MTC) (Table 1, FIG. 1).
In case no MTC was reached, 100 μg/mL was used as the test concentration. In line with studies previously reported [Baraban et al. (2005) Neurosci 131, 759-768; Afrikanova et al. (2013) PLoS One 8, e54166], addition of the GABAA-receptor antagonist PTZ to the swimming water of 7 days post-fertilization (dpf) zebrafish larvae strongly elevated larval locomotion (p≤0.001) (FIGS. 2 and 3) as a result of induced seizures (or seizure-like behavior) that were recognized as typical high-speed swimming, whirlpool-like circling, clonus-like seizures, and loss of posture, as previously described in Baraban et al cited above.
Experimental procedure was described in Afrikanova et al.(2013) PLoS One 8, e54166 and Orellana-Paucar et al. (2012) Epilepsy Behav 24, 14-22. In brief, a single 7 dpf larva (in case of 2 hours incubation) or 6 dpf larva (in case of 18 hours incubation) was placed in each well of a 96-well plate and treated with either VHC (1% DMSO) or compound (1% DMSO) in a 100 μL volume. Larvae were incubated in dark for 2 or 18 hours at 28° C., whereafter 100 μL of either VHC (embryo medium) or 40 mM PTZ (dissolved in embryo medium, 20 mM working concentration) was added to each well. Next, within 5 min the 96-well plate was placed in an automated tracking device (ZebraBox Viewpoint, France) and larval behavior was video recorded for 30 min. The complete procedure was performed in dark conditions using infrared light. Total locomotor activity was recorded by ZebraLab software (Viewpoint, France) and expressed in actinteg units, which is the sum of pixel changes detected during the defined time interval (5 min). Larval behavior was depicted as mean actinteg units/5 min during the 30 min recording period and over 5 min time intervals. Data are expressed as mean±SD or as mean ±SEM when the means of independent experiments were pooled.

T1 sequence (P54289 25-1103): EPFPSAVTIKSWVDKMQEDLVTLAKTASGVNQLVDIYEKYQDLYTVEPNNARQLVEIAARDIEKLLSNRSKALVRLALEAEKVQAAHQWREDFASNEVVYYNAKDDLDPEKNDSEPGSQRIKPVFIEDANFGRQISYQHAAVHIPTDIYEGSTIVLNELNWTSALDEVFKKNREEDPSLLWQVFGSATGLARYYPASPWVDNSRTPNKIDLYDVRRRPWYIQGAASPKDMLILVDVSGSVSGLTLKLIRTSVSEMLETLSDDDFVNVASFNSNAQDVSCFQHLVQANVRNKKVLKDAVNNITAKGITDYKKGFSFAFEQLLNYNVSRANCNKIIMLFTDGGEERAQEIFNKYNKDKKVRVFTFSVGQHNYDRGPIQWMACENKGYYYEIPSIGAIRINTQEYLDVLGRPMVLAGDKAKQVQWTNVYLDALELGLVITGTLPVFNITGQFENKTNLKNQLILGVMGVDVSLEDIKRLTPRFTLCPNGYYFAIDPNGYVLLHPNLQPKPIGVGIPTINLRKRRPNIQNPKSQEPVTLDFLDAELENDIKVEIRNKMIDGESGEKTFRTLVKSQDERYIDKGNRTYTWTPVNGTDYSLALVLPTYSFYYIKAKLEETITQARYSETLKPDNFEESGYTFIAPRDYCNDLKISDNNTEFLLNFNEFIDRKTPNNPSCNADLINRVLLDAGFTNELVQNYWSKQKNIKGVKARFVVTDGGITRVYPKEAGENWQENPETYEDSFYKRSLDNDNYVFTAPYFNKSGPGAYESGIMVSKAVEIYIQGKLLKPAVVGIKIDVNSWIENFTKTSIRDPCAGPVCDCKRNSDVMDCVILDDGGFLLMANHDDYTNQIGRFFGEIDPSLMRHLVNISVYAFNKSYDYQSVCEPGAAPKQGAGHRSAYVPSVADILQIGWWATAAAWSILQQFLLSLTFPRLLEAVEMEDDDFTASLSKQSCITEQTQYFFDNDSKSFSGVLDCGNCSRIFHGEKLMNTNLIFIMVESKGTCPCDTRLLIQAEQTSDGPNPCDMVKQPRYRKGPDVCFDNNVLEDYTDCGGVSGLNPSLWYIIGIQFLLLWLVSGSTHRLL
T1 sequence (Q08289 whole entry, further chain): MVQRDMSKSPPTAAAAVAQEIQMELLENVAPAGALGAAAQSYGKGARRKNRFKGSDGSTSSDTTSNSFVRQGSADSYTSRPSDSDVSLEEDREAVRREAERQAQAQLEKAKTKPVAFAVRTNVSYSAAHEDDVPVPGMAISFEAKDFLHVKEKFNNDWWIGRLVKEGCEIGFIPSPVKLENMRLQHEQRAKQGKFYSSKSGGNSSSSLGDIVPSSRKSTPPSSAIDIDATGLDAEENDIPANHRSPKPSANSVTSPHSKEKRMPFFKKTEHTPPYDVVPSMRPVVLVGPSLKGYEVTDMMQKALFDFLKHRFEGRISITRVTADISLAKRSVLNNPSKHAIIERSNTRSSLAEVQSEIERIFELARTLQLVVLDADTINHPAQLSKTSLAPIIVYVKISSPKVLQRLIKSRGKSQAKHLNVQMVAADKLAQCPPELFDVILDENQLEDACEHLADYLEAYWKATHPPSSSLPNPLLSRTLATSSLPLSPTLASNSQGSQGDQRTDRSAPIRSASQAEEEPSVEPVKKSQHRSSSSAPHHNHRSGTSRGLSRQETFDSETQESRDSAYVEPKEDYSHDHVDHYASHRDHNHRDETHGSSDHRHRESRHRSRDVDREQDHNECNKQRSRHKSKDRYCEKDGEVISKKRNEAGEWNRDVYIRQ
T1 sequence (Q13936 whole entry): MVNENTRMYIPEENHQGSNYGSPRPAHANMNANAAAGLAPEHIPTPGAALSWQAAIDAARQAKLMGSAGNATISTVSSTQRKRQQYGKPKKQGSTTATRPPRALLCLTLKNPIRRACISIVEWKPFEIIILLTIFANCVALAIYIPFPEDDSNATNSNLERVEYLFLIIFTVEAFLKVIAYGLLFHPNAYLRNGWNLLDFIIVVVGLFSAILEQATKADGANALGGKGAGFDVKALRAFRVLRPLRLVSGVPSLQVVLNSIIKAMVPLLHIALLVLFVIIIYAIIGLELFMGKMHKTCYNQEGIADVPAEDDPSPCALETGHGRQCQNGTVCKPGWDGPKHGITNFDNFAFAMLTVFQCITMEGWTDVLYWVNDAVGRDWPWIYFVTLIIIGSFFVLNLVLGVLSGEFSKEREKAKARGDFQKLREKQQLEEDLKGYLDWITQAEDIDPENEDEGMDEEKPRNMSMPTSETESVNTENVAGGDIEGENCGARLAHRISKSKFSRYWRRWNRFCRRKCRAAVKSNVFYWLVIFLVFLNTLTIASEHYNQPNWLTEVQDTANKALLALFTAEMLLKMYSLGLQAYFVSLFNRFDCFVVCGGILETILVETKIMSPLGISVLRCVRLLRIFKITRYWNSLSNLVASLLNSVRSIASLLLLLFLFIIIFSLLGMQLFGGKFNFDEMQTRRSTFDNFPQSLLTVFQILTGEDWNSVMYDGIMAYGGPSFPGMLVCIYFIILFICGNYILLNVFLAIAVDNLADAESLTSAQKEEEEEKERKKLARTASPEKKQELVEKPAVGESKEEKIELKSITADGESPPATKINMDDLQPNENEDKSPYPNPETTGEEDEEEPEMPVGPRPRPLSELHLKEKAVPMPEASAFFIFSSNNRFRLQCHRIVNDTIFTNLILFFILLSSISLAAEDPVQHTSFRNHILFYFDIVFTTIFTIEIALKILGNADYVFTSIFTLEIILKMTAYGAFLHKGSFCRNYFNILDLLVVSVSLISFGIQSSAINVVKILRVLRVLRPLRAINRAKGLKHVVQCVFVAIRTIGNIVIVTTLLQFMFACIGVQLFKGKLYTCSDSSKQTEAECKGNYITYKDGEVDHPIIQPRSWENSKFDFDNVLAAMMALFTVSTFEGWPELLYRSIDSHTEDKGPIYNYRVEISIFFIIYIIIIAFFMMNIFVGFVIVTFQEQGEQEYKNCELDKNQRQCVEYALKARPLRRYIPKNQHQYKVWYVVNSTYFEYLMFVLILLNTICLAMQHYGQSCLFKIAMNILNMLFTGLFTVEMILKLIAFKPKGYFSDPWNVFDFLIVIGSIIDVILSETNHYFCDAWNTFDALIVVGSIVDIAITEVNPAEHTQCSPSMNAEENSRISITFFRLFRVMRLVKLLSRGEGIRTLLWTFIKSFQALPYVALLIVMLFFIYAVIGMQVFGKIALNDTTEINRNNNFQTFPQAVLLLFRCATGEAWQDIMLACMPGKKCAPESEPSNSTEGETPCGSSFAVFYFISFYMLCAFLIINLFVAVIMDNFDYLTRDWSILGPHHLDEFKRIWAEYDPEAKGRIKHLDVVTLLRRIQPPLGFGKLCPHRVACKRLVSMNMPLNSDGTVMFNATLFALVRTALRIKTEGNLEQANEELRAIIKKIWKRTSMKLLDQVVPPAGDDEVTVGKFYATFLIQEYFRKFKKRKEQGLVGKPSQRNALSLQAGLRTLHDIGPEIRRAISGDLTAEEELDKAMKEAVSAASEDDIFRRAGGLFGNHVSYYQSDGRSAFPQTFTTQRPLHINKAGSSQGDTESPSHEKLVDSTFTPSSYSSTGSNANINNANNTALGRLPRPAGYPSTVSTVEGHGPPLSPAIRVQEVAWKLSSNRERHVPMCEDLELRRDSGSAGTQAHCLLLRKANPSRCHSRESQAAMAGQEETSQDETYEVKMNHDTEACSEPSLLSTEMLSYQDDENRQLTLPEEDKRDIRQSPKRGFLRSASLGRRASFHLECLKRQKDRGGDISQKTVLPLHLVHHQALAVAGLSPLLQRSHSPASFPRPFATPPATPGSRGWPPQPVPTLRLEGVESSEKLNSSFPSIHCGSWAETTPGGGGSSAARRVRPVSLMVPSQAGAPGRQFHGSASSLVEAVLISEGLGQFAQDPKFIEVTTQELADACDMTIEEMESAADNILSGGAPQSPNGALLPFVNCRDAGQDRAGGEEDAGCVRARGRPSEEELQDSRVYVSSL

Row | SMILES | Cardiotoxicity Cav1.2 channel, effect (Cav1.2 channel) | IC50 (Cav1.2 channel) | Cytotoxicity SHSY5Y cells, effect (SHSY5Y cells) | IC50 (SHSY5Y cells) | Hepatic clearance, rating [1] | Hepatic clearance [1] | Hepatic clearance t1/2 (half-life) [1] | Hepatic clearance t1/2 (half-life) ([1]; listed as Azaspirofuran A) | PTZ-induced seizure behavior, concentration-response retest ([2]; at MTC, 2 hours incubation, 30 min recording, three independent experiments) | PTZ-induced seizures (seizure-like behavior) ([2]; at MTC, 2 hours of compound exposure) | Hepatic clearance t1/2 (half-life) ([1]; listed as Pseurotin A2) | PTZ-induced seizure behavior, concentration-response retest ([2]; MTC, MTC/2, MTC/4, optimal incubation time, 30 min recording and 5 min intervals) | PTZ-induced seizures (seizure-like behavior) ([2]; at MTC, 18 hours of compound exposure)
1 | CCc1ccc(C2=C(C)C(=O)C3(O2)C(=O)NC(OC)(C(=O)c2ccccc2)C3O)o1 (centres unmarked) [azaspirofuran A] | No effect | > 50 µM | Weak | > 50 µM | Medium | 20.17 μL/ μL/min/mg protein | 33 min | 33.12 min | lowered PTZ-induced seizure behavior to the same extent as before | significantly lowered PTZ-induced seizures |  |  | 
2 | CC/C=C\[C@H](O)[C@H](O)C1=C(C)C(=O)[C@]2(O1)C(=O)N[C@](OC)(C(=O)c1ccccc1)[C@H]2O [pseurotin A2] | No effect | > 50 µM | Decrease | 17.9 µM | Low | <8.6 μL/ μL/min/mg protein | > 60 min |  |  |  | > 60 min | concentration-dependent activity | significantly lowered PTZ-induced seizures
